Patent US20170296460A1, “METHOD OF IMPROVING THE APPEARANCE OF PERIORBITAL DYSCHROMIA” (The Procter & Gamble Company, priority 2016, published 2017)

Tested on: B16-F1 mouse melanoma cell line
Assay: B16 melanin synthesis inhibition assay
Assay type: cell-based
Settings: B16-F1 cells, OD 410 nm
Method: In this example, a commercially available B16-F1 mouse melanoma cell line from American Tissue Culture Collection, Virginia, USA was employed in a conventional melanin synthesis inhibition assay. The cell culture medium used in the assay is 500 mL of Dulbecco's Modified Eagle's Medium (DMEM), 50 mL Fetal Bovine Serum (FBS), and 5 mL of penicillin-streptomycin liquid. B16-F1 cells that are cultured in this medium and grown to greater than 90% confluency will synthesize melanin. While not intending to be bound by any theory, it is hypothesized that the melanin synthesis is stimulated by the culture medium and/or stress induced by growth to a high confluency. […] Equipment used in the assay include a CO2 incubator, such as a Forma Series Model 3110 by Therma Scientific, Massachusetts, USA; a hemocytometer, such as a Bright Line model by Hauser Scientific, Pennsylvania, USA; and a UV-Visible Spectrum Plate Reader, such as a SpectraMax250 from Molecular Devices, California, USA. […] Day 3: The cells from the T-150 flask are trypsinized, and the concentration of cells is determined using the hemacytometer. […] Read the 96 well plate using the UV-Vis Plate Reader at 410 nm to optically measure the amount of melanin produced between wells that are treated with the pumpkin seed extract and control wells that are not. […] The concentration of test agent needed to provide the IC 50 is recorded.

SMILES: Oc1ccc(OC2CCCCO2)cc1 (stereo not shown) [Deoxyarbutin]
- Concentration Needed for IC 50: 0.008 v/v
